Experimental data published in article PMC4997316, “A ruthenium polypyridyl intercalator stalls DNA replication forks, radiosensitizes human cancer cells and is enhanced by Chk1 inhibition” (Scientific Reports, 2016).
pIC50: −log10 of the molar value.

Key:
[1] = test system: cleaved caspase-3 and LC3-II in HeLa cells; test: Western blotting for cell death markers (cleaved caspase 3, LC3-II); assay type: cell-based, human; settings: 24 h, concentrations centred on IC50
Method: Figure 2 Complexes 1 and 2 are internalised by cancer cells and impact proliferation. (a) Effect of 40 μM 1 or 2 (0–72 h incubation time) on numbers of viable (left) and non-viable (right, data expressed as % total cells, independent of viability) HeLa cells (in triplicate, +/− SD). […] (c) Intracellular Ru levels of HeLa cells treated with 1 or 2 (40 μM, 24 h), as determined by ICP-MS. (d) Ru levels within isolated subcellular fractions of HeLa cells treated with 1 or 2 (40 μM, 24 h). Fractions: C = cytoplasm and cytoskeleton, M = membrane, N = nucleus. Successful fractionation confirmed by immunoblotting (right). All ICP-MS data were normalised to protein content of the corresponding fraction and are the mean of two independent experiments +/− SEM. (e) Epifluorescence microscopy of HeLa cells treated with 1 or 2 (40 μM, 24 h) showing intracellular MLCT emission. Co-staining with nuclear stain DAPI included. Scale bars = 20 μm.
Cells were incubated as stated, washed with cold PBS and lysed in RIPA (radioimmunoprecipitation assay) buffer containing protease inhibitors (10 μg/ml leupeptin, 2 μg/ml pepstatin, 50 μg/ml antipain, 2 μg/ml aprotinin, 20 μg/ml chyprostatin, 2 μg/ml benzamidine, 1 mM phenylmethanesulfonyl fluoride) and phosphatase inhibitors (50 mM NaF, 1 mM Na3VO4 and 20 mM β-glycerophosphate). Aliquots of cell lysates (5–20 μg total protein) were resolved by NuPAGE® 4–12% Bis-Tris gels and LDS-PAGE, transferred onto nitrocellulose membrane and probed with primary antibodies in 5% BSA (bovine serum albumin) solutions. Reactions were visualised with a suitable secondary antibody conjugated with horseradish peroxidase (Thermo). Pierce ECL (Thermo) or WesternSurePREMIUM (Li-Cor) chemiluminescent substrates with X-ray development (Fuji medical film and Optimax 2010 processor) or digital analysis (LiCor C-Digit Blot Scanner) were used to visualise protein expression. Li-Cor Image Studio Lite software was used for densitometry data acquisition.

[2] = test system: MCF7 breast cancer cells; test: MTT proliferation assay, MCF7; assay type: cell-based, human; settings: 24 h proliferation assay
Method: (LC3 = Microtubule-associated protein light chain 3) (Fig. 2b, bottom).
Cells were seeded in 96 well plates at 20,000 cells/well, allowed to proliferate for 24 h before treatment as described in the main text. 0.5 mg ml^−1 MTT (thiazolyl blue tetrazolium bromide) dissolved in serum-free media was added for 60 minutes and the formazan product eluted using acidified isopropanol. The absorbance at 540 nm was quantified by plate reader (reference wavelength 650 nm). The metabolic activity of the cell population was determined as a percentage of a negative (solvent) control.

[3] = test system: replication forks in HeLa cells; test: DNA fibre assay (replication fork progression); assay type: cell-based, human; settings: for median IdU tract length: 40 μM added during 30 min IdU pulse, mock 6.10 μm
Method: Replication tracks were sequentially pulse-labelled with CldU (red) and IdU (green) and the addition of 1 or 2 during the second (IdU) pulse enabled us to evaluate the immediate effect of each complex on individual replication fork progression in S phase cells (Figs 3a and S12).
DNA fibre assays and immunofluorescent staining were performed as described elsewhere, employing sequential CldU and IdU incubation times of 30 mins each. The second nucleotide (IdU) was incubated in the presence of 1, 2 (40 μM) or a DMSO (0.5%) control. Fibres were visualised with a Leica DMRB microscope with a DFC360FX camera. Lengths of CldU- and IdU-labeled tracts were measured by ImageJ software. Statistical analysis was performed using GraphPad Prism software using unpaired t-test.

[4] = octanol/water partition coefficient (Log P)
[5] = test system: HeLa cells; test: irradiation and clonogenic survival assay; assay type: cell-based, human; settings: for DEF (dose enhancement factor): LD10 [without complex]/LD10 [with complex]; for Radiosensitivity (AUC): area under the survival curve, DMSO 3.83; for LD10: from regression of survival curves, DMSO 6.7; for radiation enhancement ratio (RER): radiosensitivity [without complex]/radiosensitivity [with complex]
Method: Chemotherapeutics are often used in combination with external beam ionising radiation in the treatment of cancers and many drugs that inhibit DNA replication are potent radiosensitizers. To examine the possibility that 1 may function as a radiosensitizer, HeLa cells were pre-treated with 1 for 20 h before irradiation (0–6 Gy ionising irradiation (IR); ^137Cs-γ-rays; dose rate = 0.809 Gy min^−1). After further incubation for 4 h with the complex, the relative impact on cell viability was assessed by clonogenic survival. Complex 2, which achieves its impact on cell proliferation through non-DNA damage-based autophagy, was included in parallel for comparison. […] The formation of γH2AX is an early response to IR-induced DSB generation and may provide an indication of DNA damage levels. […] These findings indicate increased levels of DNA damage at an early time point accompany the enhanced radiation-induced cell killing in HeLa cells radiosensitised by 1.
HeLa cells were pre-treated with DMSO, 1 or 2 for 20 h and irradiated using a ^137Cs γ-irradiator (IBL637, CIS Bio Int.; dose rate = 0.809 Gy min^−1). Solutions were removed 4 h after irradiation; cells detached using Trypsin and re-seeded in 6 well plates at a density of 1000 cells/well (in triplicate). Cells were incubated for 7–10 days after re-seeding to allow colony formation before being fixed with 10% methanol, 10% acetic acid and stained with 0.4% methylene blue. Colonies containing 50 cells or greater were counted using a Gelcount instrument and accompanying software (Oxford Optronix). Plating efficiencies were determined for each treatment condition and normalised to controls to provide the survival fraction. Resultant survival fraction (S.F.) versus radiation dose curves were fitted using a second order polynomial function (R^2 values > 0.99). […]
Table S2. Radiosensitization data for 1 and 2 in HeLa cells.
LD10 (Gy) DEF Radiosensitivity RER
Survival variables LD10 (10 % lethal dose) and radiosensitivity, which is expressed as the area under
the survival curve (AUC), derived from linear regression analyses of survival curves (R 2 values ≥
0.989 for all fits). Dose enhancement factor (DEF) = LD 10 [without complex]/LD10 [with complex].
Radiation enhancement ratio (RER) = radiosensitivity [without complex]/radiosensitivity [with

| SMILES | generation of apoptosis marker cleaved caspase-3 [1] | levels of autophagy marker LC3-II [1] | pIC50 [2] | median IdU tract length [3] [μm] | stalled replication forks (red tract only), of total replication forks ([3]; 40 μM during IdU pulse, mock 7.5 +/− 1%) | Log P [4] | decrease in cell survival versus 6 Gy γ-rays alone ([5]; 40 μM plus 6 Gy) [fold] | survival fraction (S.F.) with 6 Gy γ-rays ([5]; 40 μM, 20 h before and 4 h after irradiation, 6 Gy alone 21.1 +/− 2%) | survival fraction (S.F.) in the absence of radiation ([5]; 40 μM, 24 h) | DEF (dose enhancement factor) ([5]; 40 μM) | Radiosensitivity (AUC) ([5]; 40 μM) | LD10 ([5]; 40 μM) [Gy] | radiation enhancement ratio (RER) ([5]; 40 μM) | impact on replication fork progression ([3]; 40 μM during IdU pulse) |
| --- | --- | --- | --- | --- | --- | --- | --- | --- | --- | --- | --- | --- | --- | --- |
| [Ru+2].c1ccc(-c2nc3c4cccnc4c4ncccc4c3[nH]2)cc1.c1ccc2nc3c4cccnc4c4ncccc4c3nc2c1.c1ccc2nc3c4cccnc4c4ncccc4c3nc2c1 [Complex 1, [Ru(dppz)2(PIP)]^2+] | no generation of the apoptosis marker cleaved caspase-3 | no detectable increase | 4.55 | 2.18 | 17 +/− 1% | 0.403 | 6.8 | 3.1 +/− 1% | ~ 85% | 1.49 | 2.59 | 4.5 | 1.48 | – |
| Oc1ccc(-c2nc3c4cccnc4c4ncccc4c3[nH]2)cc1.[Ru+2].c1ccc2nc3c4cccnc4c4ncccc4c3nc2c1.c1ccc2nc3c4cccnc4c4ncccc4c3nc2c1 [Complex 2, [Ru(dppz)2(p-HPIP)]^2+] | no generation of the apoptosis marker cleaved caspase-3 | greater in cells treated with 2 at IC50 concentrations or greater compared to untreated | 4.92 | 6.24 | – | 0.076 | – | – | – | 1.14 | 3.39 | 5.9 | 1.13 | negligible impact on replication fork progression |
